Experimental data from US7390875B2, “Method for binding, in solution, a peptide and a lipophilic vector and uses thereof” (Institut Pasteur de Lille, priority 2000, dated 2008).
Starred links: 1 amine or outer side, 2 acyl side, 3 side chain; linkers in the order of their positions; H or OH if unused. Hydrazinoacetyl = O=C(CNN[*:1])[*:2]

Tested on: class II molecules of the MHC at the surface of COLO 205 cells
Test: Quantification of the expression of class II MHC molecules at the surface of COLO 205 cells after incubation with lipopeptides (flow cytometry)
Assay type: cell-based, human
Settings: Table IIIb; for Ratio (mean fluorescence treated vs non-treated cells): L243 antibody / ALEXA 488
Experimental: 2) Protocol for Quantification of the Expression of Molecules of Class II of the Major Histocompatibility Complex (MHC) at the Surface of the Cells.
The COLO 205 cells (human cell line obtained from a carcinoma of the colon) come from the ATCC (American Type Culture Collection) cell bank. They are cultivated in an RPMI 1640 medium (Gibco BRL, Courbevoie, France) with 10% of fetal calf serum (FCS) and 5 mM of sodium pyruvate, and incubated at 37° C. in the presence of 5% of CO2. […]
The surface expression of the class II molecules of the MHC is analysed using flow cytometry with a Coulter EPICS II cytometer, at the rate of 10,000 events per sample. The fluorescence intensity observed is directly proportional to the quantity of class II molecules of the MHC present on the surface of the cells. The mean fluorescence value observed for the non-treated cells and for the treated cells (“Mean” column in Table III) makes it possible to calculate a ratio between the mean fluorescence value of the non-treated cells and the mean fluorescence value for the treated cells (“Ratio” column in Table III). The control consists in incubating the cells in the absence of lipopeptides.

L-MU-IFNγc: presumably peptide Mu-IFNγ c (SEQ ID NO: 12) coupled with palmitoyl vector (IIIa); synthesis not described (H-K(Hydrazinoacetyl)AKFEVNNPQVQRQAFNELIRVVHQLLPESSLRKRKRSR-NH2; also: palmitoyl vector (IIIa) coupled by hydrazone bond)
Ratio (mean fluorescence treated vs non-treated cells) (5 μM lipopeptide): 2.14
Mean (mean fluorescence value) (5 μM lipopeptide, L243 antibody revealed by second antibody coupled to ALEXA 488, control mean 0.607): 1.3
Ratio (mean fluorescence treated vs non-treated cells) (10 μM lipopeptide): 2.83
Mean (mean fluorescence value) (10 μM lipopeptide, L243 antibody / ALEXA 488, control mean 0.607): 1.72
Ratio (mean fluorescence treated vs non-treated cells) (35 μM lipopeptide): 24.8
Mean (mean fluorescence value) (35 μM lipopeptide, L243 antibody / ALEXA 488, control mean 0.607): 15.1
